Source: PMC5362750, “Discovery of Potent, Selective, and Orally Bioavailable Small-Molecule Modulators of the Mediator Complex-Associated Kinases CDK8 and CDK19” (Journal of Medicinal Chemistry, 2016)

Assays:
[1] = tested on: glycine (strychnine-insensitive); settings: 10 µM, antagonist radioligand
MSSK1 = target: T1, MSSK1 (Homo sapiens, UniProt Q9UPE1); experiment: Kinase panel (Millipore); assay type: biochemical; settings: 1 µM, ATP at Km
T1 construct: purchased Millipore (KinaseProfiler) kinase panel
T1 sequence (Q9UPE1 whole entry): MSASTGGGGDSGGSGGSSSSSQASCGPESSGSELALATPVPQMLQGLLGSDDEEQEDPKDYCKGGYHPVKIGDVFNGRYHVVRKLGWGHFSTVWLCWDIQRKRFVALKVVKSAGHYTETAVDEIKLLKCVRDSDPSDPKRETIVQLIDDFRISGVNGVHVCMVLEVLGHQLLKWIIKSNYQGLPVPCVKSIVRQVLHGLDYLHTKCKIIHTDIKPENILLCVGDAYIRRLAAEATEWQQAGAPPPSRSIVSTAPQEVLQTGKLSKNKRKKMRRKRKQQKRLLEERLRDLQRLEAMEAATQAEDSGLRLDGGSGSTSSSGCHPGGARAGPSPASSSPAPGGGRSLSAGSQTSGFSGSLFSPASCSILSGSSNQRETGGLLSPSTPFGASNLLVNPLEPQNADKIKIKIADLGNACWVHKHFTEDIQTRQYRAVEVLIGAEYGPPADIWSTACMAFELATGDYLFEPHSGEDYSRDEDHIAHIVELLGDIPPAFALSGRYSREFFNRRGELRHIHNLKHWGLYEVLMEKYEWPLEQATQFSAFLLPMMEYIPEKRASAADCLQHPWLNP

EPHA4 = target: T2, EPHA4 (Homo sapiens, UniProt P54764); experiment: Kinase panel (Millipore); assay type: biochemical; settings: 1 µM, ATP at Km
T2 construct: purchased Millipore (KinaseProfiler) kinase panel

FGFR4 = FGFR4 (Homo sapiens, UniProt P22455); experiment: Kinase panel (Millipore); assay type: biochemical; settings: 1 µM, ATP at Km
PIM-1 = PIM-1 (Homo sapiens, UniProt P11309); experiment: Kinase panel (Millipore); assay type: biochemical; settings: 1 µM, ATP at Km
PIM-2 = PIM-2 (Homo sapiens, UniProt Q9P1W9); experiment: Kinase panel (Millipore); assay type: biochemical; settings: 1 µM, ATP at Km
FYN = FYN (Homo sapiens, UniProt P06241); experiment: Kinase panel (Millipore); assay type: biochemical; settings: 1 µM, ATP at Km
Sequence of FYN (P06241 whole entry): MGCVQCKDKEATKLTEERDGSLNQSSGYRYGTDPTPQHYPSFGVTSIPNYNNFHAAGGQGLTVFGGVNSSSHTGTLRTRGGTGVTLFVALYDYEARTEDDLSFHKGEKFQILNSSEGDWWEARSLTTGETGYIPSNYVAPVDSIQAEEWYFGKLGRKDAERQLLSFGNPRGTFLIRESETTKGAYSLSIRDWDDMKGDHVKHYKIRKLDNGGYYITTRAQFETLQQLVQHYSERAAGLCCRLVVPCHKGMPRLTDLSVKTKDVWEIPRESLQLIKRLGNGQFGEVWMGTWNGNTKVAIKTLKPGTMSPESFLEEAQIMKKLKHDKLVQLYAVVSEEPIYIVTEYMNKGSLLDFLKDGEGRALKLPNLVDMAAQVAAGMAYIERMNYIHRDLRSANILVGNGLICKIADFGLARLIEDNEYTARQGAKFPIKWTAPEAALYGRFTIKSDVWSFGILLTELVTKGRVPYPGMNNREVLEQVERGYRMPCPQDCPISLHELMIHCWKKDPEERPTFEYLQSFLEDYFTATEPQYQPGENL

GRK5 = target: T3, GRK5 (Homo sapiens, UniProt P34947); experiment: Kinase panel (Millipore); assay type: biochemical; settings: 1 µM, ATP at Km
T3 construct: purchased Millipore (KinaseProfiler) kinase panel

CDK7/CYCLINH/MAT1 = CDK7/CYCLINH/MAT1 (Homo sapiens, UniProt P50613); settings: 1 µM, ATP at Km
CRF1 (h) = target: T4, CRF1 (h) (Homo sapiens, UniProt P34998); experiment: CEREP binding assay; settings: agonist radioligand, read-out: % Inhibition of Control Specific Binding
T4 construct: purchased Millipore (KinaseProfiler) kinase panel

MAPKAP-K3 = target: T5, MAPKAP-K3 (Homo sapiens, UniProt Q16644); experiment: Kinase panel (Millipore); assay type: biochemical; settings: 1 µM, ATP at Km
T5 construct: purchased Millipore (KinaseProfiler) kinase panel

SYK = SYK (Homo sapiens, UniProt P43405); experiment: Kinase panel (Millipore); assay type: biochemical; settings: 1 µM, ATP at Km
AT2 (h) = target: T6, AT2 (h) (Homo sapiens, UniProt P50052); experiment: CEREP binding assay; settings: agonist radioligand, read-out: % Inhibition of Control Specific Binding
T6 construct: purchased Millipore (KinaseProfiler) kinase panel

EGFR(T790M) = EGFR(T790M) (Homo sapiens, UniProt P00533, T790M); settings: 1 µM, ATP at Km
TAO3 = target: T7, TAO3 (Homo sapiens, UniProt Q9H2K8); experiment: Kinase panel (Millipore); assay type: biochemical; settings: 1 µM, ATP at Km
T7 construct: purchased Millipore (KinaseProfiler) kinase panel
T7 sequence (Q9H2K8 whole entry): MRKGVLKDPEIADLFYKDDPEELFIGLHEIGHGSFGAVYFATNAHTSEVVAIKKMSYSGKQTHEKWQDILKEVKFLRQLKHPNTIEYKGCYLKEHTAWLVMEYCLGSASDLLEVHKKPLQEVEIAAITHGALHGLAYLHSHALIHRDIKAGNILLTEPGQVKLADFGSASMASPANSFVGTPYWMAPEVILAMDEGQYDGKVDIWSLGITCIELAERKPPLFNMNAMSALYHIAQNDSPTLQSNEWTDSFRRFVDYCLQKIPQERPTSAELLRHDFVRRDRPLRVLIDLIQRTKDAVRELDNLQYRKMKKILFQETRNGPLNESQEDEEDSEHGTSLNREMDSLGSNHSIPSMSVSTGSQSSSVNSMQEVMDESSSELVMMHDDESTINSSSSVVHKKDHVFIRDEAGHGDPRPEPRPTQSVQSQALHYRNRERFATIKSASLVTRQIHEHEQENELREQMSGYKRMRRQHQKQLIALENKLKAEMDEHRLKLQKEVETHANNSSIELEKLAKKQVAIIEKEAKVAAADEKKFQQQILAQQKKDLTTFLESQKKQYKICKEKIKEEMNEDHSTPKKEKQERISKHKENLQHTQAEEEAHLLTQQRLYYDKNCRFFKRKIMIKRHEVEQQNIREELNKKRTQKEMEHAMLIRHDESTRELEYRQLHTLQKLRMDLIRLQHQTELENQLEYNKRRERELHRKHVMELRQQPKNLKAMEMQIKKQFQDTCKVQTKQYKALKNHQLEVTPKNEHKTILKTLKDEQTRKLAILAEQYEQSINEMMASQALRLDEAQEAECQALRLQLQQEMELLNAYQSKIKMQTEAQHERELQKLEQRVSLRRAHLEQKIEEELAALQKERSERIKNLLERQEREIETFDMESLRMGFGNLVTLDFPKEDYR

CK1(Y) = experiment: Kinase panel (Millipore); assay type: biochemical; settings: 1 µM, ATP at Km
[…](V561D) = […](V561D) (Homo sapiens, UniProt P16234, V561D); settings: 1 µM, ATP at Km
CK2 = CK2 (Homo sapiens, UniProt P68400); settings: 1 µM, ATP at Km
FGFR1 = target: T8, FGFR1 (Homo sapiens, UniProt P11362); experiment: Kinase panel (Millipore); assay type: biochemical; settings: 1 µM, ATP at Km
T8 construct: purchased Millipore (KinaseProfiler) kinase panel

ROS = target: T9, ROS (Homo sapiens, UniProt P08922); experiment: Kinase panel (Millipore); assay type: biochemical; settings: 1 µM, ATP at Km
T9 construct: purchased Millipore (KinaseProfiler) kinase panel

BRSK2 = target: T10, BRSK2 (Homo sapiens, UniProt Q8IWQ3); experiment: Kinase panel (Millipore); assay type: biochemical; settings: 1 µM, ATP at Km
T10 construct: purchased Millipore (KinaseProfiler) kinase panel

ABL = ABL (Homo sapiens, UniProt P00519); experiment: Kinase panel (Millipore); assay type: biochemical; settings: 1 µM, ATP at Km
PKCBII = PKCBII (Homo sapiens, UniProt P05771); experiment: Kinase panel (Millipore); assay type: biochemical; settings: 1 µM, ATP at Km
[2] = tested on: APC-mutant SW620 human colorectal carcinoma xenograft
SRC(1-530) = SRC(1-530) (Homo sapiens, UniProt P12931); experiment: Kinase panel (Millipore); assay type: biochemical; settings: 1 µM, ATP at Km
Sequence of SRC(1-530) (P12931 1-530 limits assumed): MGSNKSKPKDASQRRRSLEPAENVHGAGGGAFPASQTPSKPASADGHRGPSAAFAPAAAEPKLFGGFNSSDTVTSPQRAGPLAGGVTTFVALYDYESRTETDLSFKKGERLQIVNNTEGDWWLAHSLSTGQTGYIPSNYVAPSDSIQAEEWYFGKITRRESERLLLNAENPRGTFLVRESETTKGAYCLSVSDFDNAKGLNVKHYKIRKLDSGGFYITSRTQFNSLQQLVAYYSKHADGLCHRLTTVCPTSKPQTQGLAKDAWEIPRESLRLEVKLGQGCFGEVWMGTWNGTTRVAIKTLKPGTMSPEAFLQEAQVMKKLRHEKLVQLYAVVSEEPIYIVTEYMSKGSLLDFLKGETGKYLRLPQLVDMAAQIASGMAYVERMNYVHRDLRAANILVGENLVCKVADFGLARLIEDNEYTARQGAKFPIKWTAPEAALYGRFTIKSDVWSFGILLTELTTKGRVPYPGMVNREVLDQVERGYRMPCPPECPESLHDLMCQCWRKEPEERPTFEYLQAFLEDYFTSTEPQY

GABAB(1b) (h) = GABAB(1b) (h) (Homo sapiens, UniProt Q9UBS5); experiment: biochemical; settings: read-out: % Inhibition of Control Specific Binding
GCK = target: T11, GCK (Homo sapiens, UniProt Q12851); experiment: Kinase panel (Millipore); assay type: biochemical; settings: 1 µM, ATP at Km
T11 construct: purchased Millipore (KinaseProfiler) kinase panel

CAMKIIBETA = CAMKIIBETA (Homo sapiens, UniProt Q13554); experiment: Kinase panel (Millipore); assay type: biochemical; settings: 1 µM, ATP at Km
SAPK3 = SAPK3 (Homo sapiens, UniProt P53778); experiment: Kinase panel (Millipore); assay type: biochemical; settings: 1 µM, ATP at Km
cMET (Y1248C) = cMET (Y1248C) (Homo sapiens, UniProt P08581, Y1230C); settings: 1 µM, ATP at Km
PI3K DELTA = PI3K DELTA (Homo sapiens, UniProt O00329); experiment: Kinase panel (Millipore); assay type: biochemical; settings: 1 µM, ATP at Km
CysLT1 (LTD4) (h) = target: T12, CysLT1 (LTD4) (h) (Homo sapiens, UniProt Q9Y271); experiment: CEREP binding assay; settings: agonist radioligand, read-out: % Inhibition of Control Specific Binding
T12 construct: purchased Millipore (KinaseProfiler) kinase panel

PHKGAMMA2 = PHKGAMMA2 (Homo sapiens, UniProt P15735); experiment: Kinase panel (Millipore); assay type: biochemical; settings: 1 µM, ATP at Km
Sequence of PHKGAMMA2 (P15735 whole entry): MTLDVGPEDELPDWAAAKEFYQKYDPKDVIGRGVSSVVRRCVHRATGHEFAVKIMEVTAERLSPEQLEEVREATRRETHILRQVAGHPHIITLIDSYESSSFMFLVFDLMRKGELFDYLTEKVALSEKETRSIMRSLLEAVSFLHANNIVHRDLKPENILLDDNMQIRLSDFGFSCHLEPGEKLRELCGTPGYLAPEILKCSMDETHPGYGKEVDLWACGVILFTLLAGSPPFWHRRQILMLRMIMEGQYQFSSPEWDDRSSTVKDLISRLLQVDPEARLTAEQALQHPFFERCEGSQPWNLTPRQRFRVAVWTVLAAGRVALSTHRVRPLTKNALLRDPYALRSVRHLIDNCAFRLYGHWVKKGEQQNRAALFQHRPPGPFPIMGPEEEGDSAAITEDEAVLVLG

CCR2 (h) = target: T13, CCR2 (h) (Homo sapiens, UniProt P41597); experiment: CEREP binding assay; settings: agonist radioligand, read-out: % Inhibition of Control Specific Binding
T13 construct: purchased Millipore (KinaseProfiler) kinase panel

TEC ACTIVATED = target: T14, TEC ACTIVATED (Homo sapiens, UniProt P42680); experiment: Kinase panel (Millipore); assay type: biochemical; settings: 1 µM, ATP at Km
T14 construct: purchased Millipore (KinaseProfiler) kinase panel

H4 (h) = target: T15, H4 (h) (Homo sapiens, UniProt Q9H3N8); experiment: CEREP binding assay; settings: agonist radioligand, read-out: % Inhibition of Control Specific Binding
T15 construct: purchased Millipore (KinaseProfiler) kinase panel

MST3 = target: T16, MST3 (Homo sapiens, UniProt Q9Y6E0); experiment: Kinase panel (Millipore); assay type: biochemical; settings: 1 µM, ATP at Km
T16 construct: purchased Millipore (KinaseProfiler) kinase panel

CRAF = CRAF (Homo sapiens, UniProt P04049); experiment: Kinase panel (Millipore); assay type: biochemical; settings: 1 µM, ATP at Km
Sequence of CRAF (P04049 whole entry): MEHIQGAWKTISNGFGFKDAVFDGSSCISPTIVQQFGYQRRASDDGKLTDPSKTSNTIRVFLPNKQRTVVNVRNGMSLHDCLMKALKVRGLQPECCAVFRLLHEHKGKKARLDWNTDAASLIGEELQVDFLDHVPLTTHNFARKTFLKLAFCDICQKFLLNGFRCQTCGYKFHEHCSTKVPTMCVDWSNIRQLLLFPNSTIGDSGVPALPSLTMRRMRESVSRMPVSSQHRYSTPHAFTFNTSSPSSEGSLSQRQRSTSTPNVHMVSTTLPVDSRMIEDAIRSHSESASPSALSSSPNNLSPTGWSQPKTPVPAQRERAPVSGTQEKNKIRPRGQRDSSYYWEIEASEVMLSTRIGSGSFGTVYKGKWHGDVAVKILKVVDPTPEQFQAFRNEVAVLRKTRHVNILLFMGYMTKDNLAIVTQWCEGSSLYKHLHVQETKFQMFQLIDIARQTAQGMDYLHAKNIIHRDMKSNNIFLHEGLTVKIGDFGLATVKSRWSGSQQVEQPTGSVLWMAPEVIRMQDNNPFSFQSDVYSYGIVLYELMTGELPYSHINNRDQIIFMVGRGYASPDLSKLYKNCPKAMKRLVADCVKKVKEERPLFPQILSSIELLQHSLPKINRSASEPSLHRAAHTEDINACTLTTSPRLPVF

DAPK1 = target: T17, DAPK1 (Homo sapiens, UniProt P53355); experiment: Kinase panel (Millipore); assay type: biochemical; settings: 1 µM, ATP at Km
T17 construct: purchased Millipore (KinaseProfiler) kinase panel
T17 sequence (P53355 whole entry): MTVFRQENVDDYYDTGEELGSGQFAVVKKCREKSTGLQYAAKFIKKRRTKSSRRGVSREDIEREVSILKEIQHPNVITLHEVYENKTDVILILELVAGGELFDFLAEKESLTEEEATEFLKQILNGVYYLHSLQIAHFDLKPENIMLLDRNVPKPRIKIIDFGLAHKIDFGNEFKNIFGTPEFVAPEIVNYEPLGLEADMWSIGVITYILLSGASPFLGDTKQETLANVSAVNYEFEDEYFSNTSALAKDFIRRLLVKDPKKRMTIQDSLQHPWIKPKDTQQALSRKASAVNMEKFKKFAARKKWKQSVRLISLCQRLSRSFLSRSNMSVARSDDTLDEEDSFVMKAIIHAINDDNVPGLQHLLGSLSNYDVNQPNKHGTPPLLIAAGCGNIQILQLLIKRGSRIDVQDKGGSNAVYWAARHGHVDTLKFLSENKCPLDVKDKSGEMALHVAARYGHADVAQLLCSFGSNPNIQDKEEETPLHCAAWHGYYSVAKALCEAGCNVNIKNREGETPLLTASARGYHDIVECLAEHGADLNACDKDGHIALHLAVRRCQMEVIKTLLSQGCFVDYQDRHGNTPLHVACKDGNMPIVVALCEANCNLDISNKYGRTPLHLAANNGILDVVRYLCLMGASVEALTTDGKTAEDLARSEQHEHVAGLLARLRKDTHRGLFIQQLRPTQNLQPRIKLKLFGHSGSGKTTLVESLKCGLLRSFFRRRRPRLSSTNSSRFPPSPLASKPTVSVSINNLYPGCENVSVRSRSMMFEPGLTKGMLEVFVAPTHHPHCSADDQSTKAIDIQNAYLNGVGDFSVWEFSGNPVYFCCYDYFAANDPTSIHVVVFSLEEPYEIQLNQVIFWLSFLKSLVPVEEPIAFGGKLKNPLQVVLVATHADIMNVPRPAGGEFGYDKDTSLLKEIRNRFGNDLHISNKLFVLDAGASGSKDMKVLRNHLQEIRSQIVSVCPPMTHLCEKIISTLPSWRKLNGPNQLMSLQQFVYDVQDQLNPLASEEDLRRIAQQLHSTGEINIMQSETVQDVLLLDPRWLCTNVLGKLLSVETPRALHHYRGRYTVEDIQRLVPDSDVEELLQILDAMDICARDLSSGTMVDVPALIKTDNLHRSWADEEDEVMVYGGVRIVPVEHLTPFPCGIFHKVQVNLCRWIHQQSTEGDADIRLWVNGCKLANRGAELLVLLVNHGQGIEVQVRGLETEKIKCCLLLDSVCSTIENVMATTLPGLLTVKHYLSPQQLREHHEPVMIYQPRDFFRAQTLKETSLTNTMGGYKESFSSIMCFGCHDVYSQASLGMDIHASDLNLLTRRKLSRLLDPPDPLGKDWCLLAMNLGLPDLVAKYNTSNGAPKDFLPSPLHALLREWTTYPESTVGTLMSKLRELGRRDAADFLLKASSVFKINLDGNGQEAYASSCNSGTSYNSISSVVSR

MRCKBETA = target: T18, MRCKBETA (Homo sapiens, UniProt Q9Y5S2); experiment: Kinase panel (Millipore); assay type: biochemical; settings: 1 µM, ATP at Km
T18 construct: purchased Millipore (KinaseProfiler) kinase panel

MLK1 = target: T19, MLK1 (Homo sapiens, UniProt P80192); experiment: Kinase panel (Millipore); assay type: biochemical; settings: 1 µM, ATP at Km
T19 construct: purchased Millipore (KinaseProfiler) kinase panel

FMS(Y969C) = FMS(Y969C) (Homo sapiens, UniProt P07333, Y969C); settings: 1 µM, ATP at Km

For Cn1ncc2cc(-c3cnc(N)c(Cl)c3N3CCC4(CCNC4=O)CC3)ccc21 [Compound 109, 8-(2-Amino-3-chloro-5-(1-methyl-1H-indazol-5-yl)pyridin-4-yl)-2,8-diazaspiro[4.5]decan-1-one], the “% Inhibition of Control Specific Binding” value [1] was -3%, the “% effect” value (MSSK1) was -1% and the “% effect” value (EPHA4) was 5%. For the same compound, the “% effect” value (FGFR4) was 6%, the “% effect” value (PIM-1) was 2% and the “% effect” value (PIM-2) was -1%. For the same compound, the “% effect” value (FYN) was 23%, the “% effect” value (GRK5) was 7% and the “% effect” value (CDK7/CYCLINH/MAT1) was 5%. The inhibition at 10 µM (CRF1 (h)) was -7%, the “% effect” value (MAPKAP-K3) was 5% and the “% effect” value (SYK) was 2%. For the same compound, the inhibition at 10 µM (AT2 (h)) was 6%, the “% effect” value (EGFR(T790M)) was 11% and the “% effect” value (TAO3) was -11%. For the same compound, the “% effect” value (CK1(Y)) was -1%, the “% effect” value ([…](V561D)) was 0% and the “% effect” value (CK2) was 3%. For the same compound, the “% effect” value (FGFR1) was 7%, the “% effect” value (ROS) was 8% and the “% effect” value (BRSK2) was 0%. The “% effect” value (ABL) was -15%, the “% effect” value (PKCBII) was 3% and the “T/C (final tumor weights)” value ([2]; 30 mg/kg q.d. oral, P = 0.0241) was 45.8. For the same compound, the tolerability ([2]; 30 mg/kg q.d. schedule) was “well tolerated with no significant body weight loss”, the “% effect” value (SRC(1-530)) was 0% and the inhibition at 10 µM (GABAB(1b) (h)) was 2%. The “% effect” value (GCK) was -10%, the “% effect” value (CAMKIIBETA) was 19% and the “% effect” value (SAPK3) was 4%. For the same compound, the “% effect” value (cMET (Y1248C)) was -3%, the “% effect” value (PI3K DELTA) was 6% and the inhibition at 10 µM (CysLT1 (LTD4) (h)) was 12%. For the same compound, the “% effect” value (PHKGAMMA2) was 11%, the inhibition at 10 µM (CCR2 (h)) was -9% and the “% effect” value (TEC ACTIVATED) was -1%. The inhibition at 10 µM (H4 (h)) was 0%, the “% effect” value (MST3) was -11% and the “% effect” value (CRAF) was -10%. The “% effect” value (DAPK1) was -8%, the “% effect” value (MRCKBETA) was -35% and the “% effect” value (MLK1) was -10%. For the same compound, the “% effect” value (FMS(Y969C)) was -43%.
